Key:
[1] = target: T1, Tyrosine-protein kinase transforming protein Abl (Abelson murine leukemia virus, UniProt P00521); experiment: Inhibition of p60-vabl tyrosine kinase isolated from Abelson murine leukemia virus (A-MuLV)
T1 sequence (P00521 whole entry): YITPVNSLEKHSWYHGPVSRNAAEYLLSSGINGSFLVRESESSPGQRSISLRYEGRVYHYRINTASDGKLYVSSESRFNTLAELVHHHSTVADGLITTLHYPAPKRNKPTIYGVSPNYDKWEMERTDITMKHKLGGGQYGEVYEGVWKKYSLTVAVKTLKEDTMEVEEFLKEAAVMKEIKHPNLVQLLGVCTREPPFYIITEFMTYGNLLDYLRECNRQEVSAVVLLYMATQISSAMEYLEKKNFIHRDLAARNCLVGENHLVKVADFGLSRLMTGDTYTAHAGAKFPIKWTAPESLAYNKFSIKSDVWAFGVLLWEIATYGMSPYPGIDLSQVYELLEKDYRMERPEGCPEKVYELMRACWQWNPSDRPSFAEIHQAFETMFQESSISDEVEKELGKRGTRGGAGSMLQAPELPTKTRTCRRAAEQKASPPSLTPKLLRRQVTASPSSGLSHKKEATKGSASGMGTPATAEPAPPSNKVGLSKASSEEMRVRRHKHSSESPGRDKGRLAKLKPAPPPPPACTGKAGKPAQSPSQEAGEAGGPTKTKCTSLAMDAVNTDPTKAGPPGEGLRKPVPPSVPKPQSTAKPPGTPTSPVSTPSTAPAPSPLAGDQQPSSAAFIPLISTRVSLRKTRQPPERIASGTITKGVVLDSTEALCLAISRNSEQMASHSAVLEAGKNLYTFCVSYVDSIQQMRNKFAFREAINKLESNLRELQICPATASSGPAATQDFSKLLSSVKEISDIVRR

[2] = Inhibition of Phosphorylase (serine) Kinase activity

Row | SMILES | IC50 [1] | IC50 [2]
1 | Nc1ncnc2c1ncn2[C@@H]1O[C@H](COC(=O)c2ccc(S(=O)(=O)Oc3ccccc3)cc2)[C@@H](O)[C@H]1O | 170 µM | 80 µM
2 | Nc1ncnc2c1ncn2[C@@H]1O[C@H](COC(=O)c2ccc(S(=O)(=O)Nc3ccccc3)cc2)[C@@H](O)[C@H]1O | 19 µM | 25 µM
3 | Nc1ncnc2c1ncn2[C@@H]1O[C@H](COC(=O)c2ccc(S(=O)(=O)NCc3ccccc3)cc2)[C@@H](O)[C@H]1O | 45 µM | 
4 | Nc1ncnc2c1ncn2[C@@H]1O[C@H](COC(=O)c2ccc(S(N)(=O)=O)cc2)[C@@H](O)[C@H]1O | 120 µM | 60 µM
5 | Nc1ncnc2c1ncn2[C@@H]1O[C@H](COC(=O)c2ccc(S(=O)(=O)F)cc2)[C@@H](O)[C@H]1O | 150 µM | 250 µM
6 | CC(=O)NC(Cc1ccc(OS(=O)(=O)c2ccc(C(=O)OC[C@H]3O[C@@H](n4cnc5c(N)ncnc54)[C@H](O)[C@@H]3O)cc2)cc1)C(N)=O (some centres undefined) | 120 µM | 
7 | Nc1ncnc2c1ncn2[C@@H]1O[C@H](COC(=O)c2ccc(S(=O)(=O)NCCCc3ccccc3)cc2)[C@@H](O)[C@H]1O | 56 µM | 50 µM
8 | CS(=O)(=O)c1ccc(C(=O)OC[C@H]2O[C@@H](n3cnc4c(N)ncnc43)[C@H](O)[C@@H]2O)cc1 | 63 µM | 
9 | Nc1ncnc2c1ncn2[C@@H]1O[C@H](COC(=O)c2ccc(S(=O)(=O)NCCc3ccccc3)cc2)[C@@H](O)[C@H]1O | 50 µM | 
